Laboratory results as given in the NIST ThermoML archive (doi:10.1016/j.fluid.2007.04.028).
Numbers after ± are expanded uncertainties.

Settings: Fluid (supercritical or subcritical phases), Cylindrical cavity resonance method

C[Si]1(C)O[Si](C)(C)O[Si](C)(C)O[Si](C)(C)O[Si](C)(C)O1 [decamethylcyclopentasiloxane]
speed of sound (485 K, 35.39 kPa): 101.91 ± 0.52 m/s
speed of sound (485 K, 43.63 kPa): 101.14 ± 0.52 m/s
speed of sound (485 K, 49.43 kPa): 100.67 ± 0.51 m/s
speed of sound (485 K, 55.24 kPa): 100.36 ± 0.51 m/s
speed of sound (485 K, 63.6 kPa): 99.2 ± 0.51 m/s
speed of sound (485 K, 64.42 kPa): 99.13 ± 0.51 m/s
speed of sound (485 K, 74.85 kPa): 98.38 ± 0.5 m/s
speed of sound (485 K, 82.92 kPa): 97.28 ± 0.5 m/s
speed of sound (485 K, 85.12 kPa): 97.17 ± 0.5 m/s
speed of sound (500 K, 22.13 kPa): 104.94 ± 0.53 m/s
speed of sound (500 K, 22.48 kPa): 104.92 ± 0.53 m/s
speed of sound (500 K, 26.3 kPa): 104.68 ± 0.53 m/s
speed of sound (500 K, 31.33 kPa): 104.22 ± 0.53 m/s
speed of sound (500 K, 32.27 kPa): 104.14 ± 0.53 m/s
speed of sound (500 K, 33.93 kPa): 103.96 ± 0.53 m/s
speed of sound (500 K, 39.9 kPa): 103.53 ± 0.53 m/s
speed of sound (500 K, 42.7 kPa): 103.27 ± 0.53 m/s
speed of sound (500 K, 47.88 kPa): 102.87 ± 0.52 m/s
speed of sound (500 K, 51.58 kPa): 102.58 ± 0.52 m/s
speed of sound (500 K, 55.42 kPa): 102.2 ± 0.52 m/s
speed of sound (500 K, 64.64 kPa): 101.5 ± 0.52 m/s
speed of sound (500 K, 64.96 kPa): 101.44 ± 0.52 m/s
speed of sound (500 K, 73.64 kPa): 100.81 ± 0.51 m/s
speed of sound (500 K, 74.95 kPa): 100.63 ± 0.51 m/s
speed of sound (500 K, 78.98 kPa): 100.22 ± 0.51 m/s
speed of sound (500 K, 85.9 kPa): 99.5 ± 0.51 m/s
speed of sound (500 K, 95.37 kPa): 98.56 ± 0.5 m/s
speed of sound (500 K, 105.42 kPa): 97.6 ± 0.5 m/s
speed of sound (500 K, 116.6 kPa): 96.56 ± 0.49 m/s
speed of sound (510 K, 34.55 kPa): 105.2 ± 0.54 m/s
speed of sound (510 K, 43.26 kPa): 104.68 ± 0.53 m/s
speed of sound (510 K, 51.27 kPa): 104.86 ± 0.53 m/s
speed of sound (510 K, 57.1 kPa): 103.49 ± 0.53 m/s
speed of sound (510 K, 62.78 kPa): 103.98 ± 0.53 m/s
speed of sound (510 K, 72.53 kPa): 102.37 ± 0.52 m/s
speed of sound (510 K, 82.51 kPa): 101.58 ± 0.52 m/s
speed of sound (510 K, 89.89 kPa): 100.87 ± 0.52 m/s
speed of sound (510 K, 92.75 kPa): 100.75 ± 0.51 m/s
speed of sound (510 K, 103.28 kPa): 99.89 ± 0.51 m/s
speed of sound (510 K, 110.69 kPa): 99.98 ± 0.51 m/s

C[Si]1(C)O[Si](C)(C)O[Si](C)(C)O[Si](C)(C)O1 [octamethylcyclotetrasiloxane]
speed of sound (450 K, 38.9 kPa): 110.35 ± 0.45 m/s
speed of sound (450 K, 46.7 kPa): 109.66 ± 0.45 m/s
speed of sound (450 K, 57.41 kPa): 108.8 ± 0.45 m/s
speed of sound (450 K, 62.89 kPa): 108.3 ± 0.45 m/s
speed of sound (450 K, 69.33 kPa): 107.73 ± 0.44 m/s
speed of sound (465 K, 31.29 kPa): 113.04 ± 0.46 m/s
speed of sound (465 K, 32.63 kPa): 112.99 ± 0.46 m/s
speed of sound (465 K, 36.51 kPa): 112.75 ± 0.46 m/s
speed of sound (465 K, 40.99 kPa): 112.32 ± 0.46 m/s
speed of sound (465 K, 46.84 kPa): 111.94 ± 0.46 m/s
speed of sound (465 K, 47.85 kPa): 111.91 ± 0.46 m/s
speed of sound (465 K, 49.18 kPa): 111.72 ± 0.46 m/s
speed of sound (465 K, 57.21 kPa): 111.2 ± 0.46 m/s
speed of sound (465 K, 58.99 kPa): 110.98 ± 0.46 m/s
speed of sound (465 K, 61.46 kPa): 110.82 ± 0.46 m/s
speed of sound (465 K, 68.51 kPa): 110.33 ± 0.45 m/s
speed of sound (465 K, 70.69 kPa): 110.06 ± 0.45 m/s
speed of sound (465 K, 73.59 kPa): 109.87 ± 0.45 m/s
speed of sound (465 K, 74.87 kPa): 109.83 ± 0.45 m/s
speed of sound (465 K, 77.48 kPa): 109.53 ± 0.45 m/s
speed of sound (465 K, 81.72 kPa): 109.28 ± 0.45 m/s
speed of sound (465 K, 87.87 kPa): 108.72 ± 0.45 m/s
speed of sound (465 K, 92.89 kPa): 108.29 ± 0.45 m/s
speed of sound (465 K, 97.68 kPa): 107.96 ± 0.44 m/s
speed of sound (465 K, 101.01 kPa): 107.53 ± 0.44 m/s
speed of sound (465 K, 105.11 kPa): 107.28 ± 0.44 m/s
speed of sound (465 K, 106.95 kPa): 107.18 ± 0.44 m/s
speed of sound (465 K, 111.4 kPa): 106.69 ± 0.44 m/s
speed of sound (465 K, 116.93 kPa): 106.3 ± 0.44 m/s
speed of sound (465 K, 121.67 kPa): 105.76 ± 0.43 m/s
speed of sound (465 K, 123.48 kPa): 105.66 ± 0.43 m/s
speed of sound (480 K, 42.7 kPa): 114.02 ± 0.47 m/s
speed of sound (480 K, 54.67 kPa): 113.2 ± 0.46 m/s
speed of sound (480 K, 65.08 kPa): 112.48 ± 0.46 m/s
speed of sound (480 K, 71.3 kPa): 112.04 ± 0.46 m/s
speed of sound (480 K, 85.5 kPa): 111.07 ± 0.46 m/s
speed of sound (480 K, 92.46 kPa): 110.5 ± 0.45 m/s
speed of sound (480 K, 109.21 kPa): 109.24 ± 0.45 m/s
speed of sound (480 K, 118.88 kPa): 108.49 ± 0.45 m/s
speed of sound (480 K, 129.21 kPa): 107.67 ± 0.44 m/s
speed of sound (480 K, 140.39 kPa): 106.77 ± 0.44 m/s
speed of sound (480 K, 152.36 kPa): 105.77 ± 0.43 m/s
speed of sound (480 K, 165.42 kPa): 104.64 ± 0.43 m/s
speed of sound (495 K, 27.45 kPa): 117.14 ± 0.48 m/s
speed of sound (495 K, 36.2 kPa): 116.66 ± 0.48 m/s
speed of sound (495 K, 47.54 kPa): 115.98 ± 0.47 m/s
speed of sound (495 K, 143.41 kPa): 109.74 ± 0.45 m/s
speed of sound (495 K, 159.7 kPa): 108.43 ± 0.45 m/s
speed of sound (495 K, 160.4 kPa): 108.39 ± 0.45 m/s
speed of sound (495 K, 174.53 kPa): 107.35 ± 0.44 m/s
speed of sound (495 K, 186.64 kPa): 106.44 ± 0.44 m/s
speed of sound (495 K, 198.61 kPa): 105.49 ± 0.43 m/s
speed of sound (495 K, 224.52 kPa): 103.41 ± 0.43 m/s
